For orientation: Ki means the equilibrium dissociation constant of an inhibitor or competing ligand from its target. Read a high Ki as weaker binding.

Molecules are shown by their SMILES. Like-named read-outs stand apart in the source and are kept apart here.

Data on 1 compound can be found in paper doi:10.1101/2025.03.03.641193, “Trihydroxybenzaldoximes are redox cycling inhibitors of ThDP-dependent DXP synthase” (bioRxiv, 2025).

For one experiment, the target named is T1, DrDXPS (Deinococcus radiodurans, UniProt Q9RUB5).
T1 construct: made in house
As to the kind of experiment: DXPS-IspC coupled assay, DrDXPS. It counts as biochemical, Deinoccocus radiodurans. As for the experimental part: (§1) Inhibitory activity of compounds against DXPS were monitored via a continuous spectrophotometric coupled assay with DXPS and IspC as previously described.[41],[42] Briefly, Reaction mixtures containing HEPES (100 mM, pH 8.0), MgCl2 (2 mM), NaCl (5 mM), ThDP (1 mM), BSA (1 mg/mL), DXPS (125–500 nM), IspC (1.7 μM), NADPH (160 μM), DMSO (5%, v/v), and inhibitor (0–200 μM) were preincubated at 25 °C (or chamber temperature 25–30 °C) for 5 min. Enzymatic reactions were initiated via the addition of 20 μL of a 10x substrate mix for a final well volume of 200 μL. Reactions were performed in triplicate unless otherwise noted. See the following sections for details and modifications.
(§2) When varying pyruvate (0–500 μM), GAP was maintained at 50 μM (3 mM for R478A). When varying GAP (0–500 μM), pyruvate was maintained at 500 μM. The following [DXPS] were used when varying 1: WT EcDXPS, R478A, H431A, D427A (200 nM), R99A (500 nM), WT DrDXPS, WT PaDXPS (150 nM). Analogs 3 and 4 were tested using WT EcDXPS (150 nM). Reactions were incubated and initiated as described above. Immediately following initiation, NADPH depletion was monitored at 340 nm at 25 °C for 7–10 min with a 14–20 second time interval. Initial velocities of DXP formation were determined from the linear portion of the NADPH decay. Initial velocities were arithmetically corrected for background for compound 4. Initial velocities were plotted vs. substrate concentration, and the data were fit to equation 1 (mixed model), 2 (competitive), or 3 (uncompetitive) based on the calculated α value and goodness of fit in GraphPad Prism. Reported standard errors of the mean for Kis are calculated from three replicates.

The target in experiment [1] is T2, EcDXPS (Escherichia coli, UniProt P77488).
T2 construct: made in house
As to the kind of experiment: Inhibition in the presence of CAT or ascorbate. It counts as biochemical, E. coli. As to the method: Given that CAT prevents nonenzymatic oxidative decarboxylation of pyruvate (Fig S8, S12), but influences the redox state of 1, we evaluated the inhibitory activity of 1 in the presence of CAT (Fig 6). […] In this experiment, 1 was incubated at 25 °C for 5 min in the presence of DXPS, IspC, and either CAT or ascorbate prior to initiation by addition of pyruvate and D-GAP. […] In the presence of ascorbate, 1 is primarily in the reduced form according to NMR (Fig S10).
Reaction solutions were prepared containing EcDXPS (150 nM). Solutions contained either DXPS alone or were supplemented with CAT (0.25 mg/mL) or ascorbate (5 mM). Reaction mixtures were incubated with either water or 1 (100 μM) for 5 min at 25 °C. Reactions were initiated with a mixture of pyruvate (110 μM) and GAP (60 μM), or water for background controls. Immediately following initiation, NADPH depletion was monitored at 340 nm at 25 °C for 7.5 min with a 14 second time interval. Initial velocities of DXP formation were measured as described above and arithmetically corrected for background rates and normalized to the DXPS only control reaction for comparison. Reactions were performed in triplicate, and % inhibition was determined arithmetically from initial velocities. Reported standard errors of the mean for Kis are calculated from three replicates.

Another experiment deals with T3, R478A DXPS (Escherichia coli, UniProt P77488, R478A).
T3 construct: made in house
The experiment is described as follows: DXPS-IspC coupled assay, R478A variant. It counts as biochemical, E. coli. As for the experimental part:
In this experiment, pyruvate was varied from 12.5–500 μM and D-GAP was maintained at 2x Km.. […] Thus, it appears that EcR478A is not absolutely critical for binding 1.
as §1, §2

For experiment [2], the target named is T2, EcDXPS. The experiment is described as follows: DXPS-IspC coupled assay, aerobic, WT EcDXPS. It counts as biochemical, E. coli. As for the experimental part: as §1
as §2, with “Analogs 3 and 4 were tested using WT EcDXPS (150 nM).” left out, “Initial velocities were arithmetically corrected for background for compound 4.” left out

The next experiment addresses T4, PaDXPS (Pseudomonas aeruginosa, UniProt Q9KGU7).
T4 construct: made in house
As to the kind of experiment: DXPS-IspC coupled assay, PaDXPS. It counts as biochemical. As to the method:
as §1, §2

With `ON=Cc1cc(O)c(O)cc1O` [compound 1, 2,4,5-trihydroxybenzaldoxime], the figures for the Ki on DrDXPS, on R478A DXPS and at PaDXPS were 2.8 ± 0.2 µM, 15.7 ± 0.4 µM and 16.4 ± 2.2 µM, respectively. Further, the “MOI varying D-GAP” value on DrDXPS (DrDXPS) was “competitive”; at EcDXPS [2] (WT EcDXPS, aerobic), “competitive”; on PaDXPS (PaDXPS), “competitive”. The MOI varying pyruvate result is listed as “uncompetitive” on DrDXPS (DrDXPS); “uncompetitive” on R478A DXPS (EcR478A); “uncompetitive” at EcDXPS [2] (WT EcDXPS, aerobic); “uncompetitive” at PaDXPS (PaDXPS). Moreover, on DrDXPS (DrDXPS, varying either pyruvate or D-GAP), the “Ki relative to EcDXPS” value was at most 2 fold. The inhibition at 100 µM at EcDXPS [1] (read-out: %Inhibition at 100 μM 1, Ascorbate 5 mM, aerobic, 100 μM) was 23%; on EcDXPS [1] (read-out: %Inhibition at 100 μM 1, CAT 0.25 mg/mL, aerobic, 100 μM), 80%; at EcDXPS [1] (read-out: %Inhibition at 100 μM 1, Control (DXPS alone), aerobic, 100 μM) it was 80 ± 0.5%. For the same compound, the “Ki/Ki^wt” value on R478A DXPS (R478A, vary pyruvate, fold reduction in potency vs WT) is recorded as ~ 3. Also, the “%Inhibition at 200 μM 1” value at EcDXPS [2] (WT DXPS, HEPES pH 8, 200 μM) is recorded as ~ 79%. Moreover, the inhibition at 200 µM at EcDXPS [2] (pH 8, read-out: %Inhibition at 200 μM 1, WT DXPS, HEPES pH 8, 200 μM) worked out at 79.2 ± 0.2%. In addition, the “Ki/Ki^EcDXPS” value at PaDXPS (PaDXPS, vary pyruvate, fold reduction in potency) turned out to be 3.5.
